These results are taken from ChEMBL document CHEMBL5724914, “Linking interpersonal differences in gut microbiota composition and drug biotransformation activity” (2024).

The conditions of data set [1]: human gut metagenome, 24 h, 2 µM.
Data set [2] in a line: The drug is tested on Z-003 corresponding to pig gut metagenome with ENA study accession number: PRJEB37062 and ENA sample accession number: ERS12561803 for biotransformation under anaerobic condition. The drug concentrations were measured over 9 timepoints collected between 0 and 24 hours of incubation by liquid-chromatography-coupled mass spectrometry (LC–MS). Conditions: 2 µM.

Data set [3] in a line: The drug is tested on WLS-170 corresponding to human gut metagenome with ENA study accession number: PRJEB37062 and ENA sample accession number: ERS12561762 for biotransformation under anaerobic condition. The drug concentrations were measured over 9 timepoints collected between 0 and 24 hours of incubation by liquid-chromatography-coupled mass spectrometry (LC–MS). The note with it: 2 µM.

The conditions of data set [4]: human gut metagenome, 24 h, 2 µM. This is another data set of the same source.
Data set [5] can be described thus: The drug is tested on Z-028 corresponding to mouse gut metagenome with ENA study accession number: PRJEB37062 and ENA sample accession number: ERS12561827 for biotransformation under anaerobic condition. The drug concentrations were measured over 9 timepoints collected between 0 and 24 hours of incubation by liquid-chromatography-coupled mass spectrometry (LC–MS). The note with it: 2 µM.

Data set [6] is described as follows: The drug is tested on WLS-006 corresponding to human gut metagenome with ENA study accession number: PRJEB37062 and ENA sample accession number: ERS12561741 for biotransformation under anaerobic condition. The drug concentrations were measured over 9 timepoints collected between 0 and 24 hours of incubation by liquid-chromatography-coupled mass spectrometry (LC–MS). Conditions: 2 µM.

Data set [7] in a line: The drug is tested on WLS-077 corresponding to human gut metagenome with ENA study accession number: PRJEB37062 and ENA sample accession number: ERS12561750 for biotransformation under anaerobic condition. The drug concentrations were measured over 9 timepoints collected between 0 and 24 hours of incubation by liquid-chromatography-coupled mass spectrometry (LC–MS). Conditions: 2 µM.

A short description of data set [8]: The drug is tested on WLS-310 corresponding to human gut metagenome with ENA study accession number: PRJEB37062 and ENA sample accession number: ERS12561785 for biotransformation under anaerobic condition. The drug concentrations were measured over 9 timepoints collected between 0 and 24 hours of incubation by liquid-chromatography-coupled mass spectrometry (LC–MS). Conditions: 2 µM.

The conditions of data set [9]: human gut metagenome, 24 h, 2 µM. The source holds these as a separate data set.
The conditions of data set [10]: human gut metagenome, 24 h, 2 µM. The source holds these as a separate data set.
The nature of data set [11]: The drug is tested on WLS-098 corresponding to human gut metagenome with ENA study accession number: PRJEB37062 and ENA sample accession number: ERS12561754 for biotransformation under anaerobic condition. The drug concentrations were measured over 9 timepoints collected between 0 and 24 hours of incubation by liquid-chromatography-coupled mass spectrometry (LC–MS). The note with it: 2 µM.

Data set [12] in a line: The drug is tested on Z-027 corresponding to metagenome with ENA study accession number: PRJEB37062 and ENA sample accession number: ERS12561826 for biotransformation under anaerobic condition. The drug concentrations were measured over 9 timepoints collected between 0 and 24 hours of incubation by liquid-chromatography-coupled mass spectrometry (LC–MS). The note with it: 2 µM.

A short description of data set [13]: The drug is tested on WLS-240 corresponding to human gut metagenome with ENA study accession number: PRJEB37062 and ENA sample accession number: ERS12561773 for biotransformation under anaerobic condition. The drug concentrations were measured over 9 timepoints collected between 0 and 24 hours of incubation by liquid-chromatography-coupled mass spectrometry (LC–MS). The note with it: 2 µM.

Data set [14] can be described thus: The drug is tested on Z-026 corresponding to metagenome with ENA study accession number: PRJEB37062 and ENA sample accession number: ERS12561825 for biotransformation under anaerobic condition. The drug concentrations were measured over 9 timepoints collected between 0 and 24 hours of incubation by liquid-chromatography-coupled mass spectrometry (LC–MS). Conditions: 2 µM.

For data set [15] the following is noted: human gut metagenome, 24 h, 2 µM. This is another data set of the same source.
For data set [16] the following is noted: human gut metagenome, 24 h, 2 µM. This is another data set of the same source.
Data set [17] is described as follows: The drug is tested on Z-018 corresponding to pig gut metagenome with ENA study accession number: PRJEB37062 and ENA sample accession number: ERS12561817 for biotransformation under anaerobic condition. The drug concentrations were measured over 9 timepoints collected between 0 and 24 hours of incubation by liquid-chromatography-coupled mass spectrometry (LC–MS). The note with it: 2 µM.

The conditions of data set [18]: human gut metagenome, 24 h, 2 µM. The source holds these as a separate data set.
Data set [19] can be described thus: The drug is tested on Z-007 corresponding to rat gut metagenome with ENA study accession number: PRJEB37062 and ENA sample accession number: ERS12561807 for biotransformation under anaerobic condition. The drug concentrations were measured over 9 timepoints collected between 0 and 24 hours of incubation by liquid-chromatography-coupled mass spectrometry (LC–MS). Conditions: 2 µM.

Data set [20] in a line: The drug is tested on Z-029 corresponding to rat gut metagenome with ENA study accession number: PRJEB37062 and ENA sample accession number: ERS12561828 for biotransformation under anaerobic condition. The drug concentrations were measured over 9 timepoints collected between 0 and 24 hours of incubation by liquid-chromatography-coupled mass spectrometry (LC–MS). Conditions: 2 µM.
Also: call rule not given here.

On to `CCCc1nc2c(C)cc(-c3nc4ccccc4n3C)cc2n1Cc1ccc(-c2ccccc2C(=O)O)cc1`, for which the “Bacterial Biotransformation” value in data set [1], in data set [2], in [3], in data set [4], in data set [5] and in data set [6] was “Compound metabolized” in each case. The “Bacterial Biotransformation” value in [7], in data set [8], in data set [9], in data set [10], in data set [11] and in data set [12] was “Compound metabolized” each time. The “Bacterial Biotransformation” value in data set [13], in [14], in [15], in data set [16], in [17] and in [18] was “Compound metabolized” in each case. Besides, the “Bacterial Biotransformation” value in data set [19] was “Compound metabolized”; in data set [20], “Compound NOT metabolized”.
With `CCCCC(=O)N(Cc1ccc(-c2ccccc2-c2nnn[nH]2)cc1)[C@H](C(=O)O)C(C)C`, the “Bacterial Biotransformation” value is given as “Compound metabolized” in data set [1]; “Compound NOT metabolized” in data set [2]; “Compound metabolized” in data set [3]; “Compound NOT metabolized” in [4]; “Compound NOT metabolized” in data set [5]; “Compound metabolized” in [6]. The “Bacterial Biotransformation” value is recorded as “Compound metabolized” in data set [7]; “Compound metabolized” in data set [8]; “Compound NOT metabolized” in data set [9]; “Compound metabolized” in data set [10]; “Compound metabolized” in data set [11]; “Compound NOT metabolized” in data set [12]. For the same molecule, the “Bacterial Biotransformation” value is given as “Compound metabolized” in data set [13]; “Compound NOT metabolized” in data set [14]; “Compound metabolized” in [15]; “Compound metabolized” in data set [16]; “Compound NOT metabolized” in data set [17]; “Compound NOT metabolized” in [18]. Besides, the “Bacterial Biotransformation” value in data set [19] and in data set [20] was “Compound NOT metabolized” each time.
In the case of `Cc1cc2c(cc1S(N)(=O)=O)S(=O)(=O)CCC2`, the “Bacterial Biotransformation” value in data set [1], in data set [2], in data set [3], in data set [4], in [5] and in data set [6] was “Compound NOT metabolized” each time. Further, the “Bacterial Biotransformation” value in data set [7], in data set [8], in data set [9], in data set [10], in data set [11] and in [12] was “Compound NOT metabolized” each time. The “Bacterial Biotransformation” value in data set [13], in [14], in data set [15], in [16], in data set [17] and in data set [18] was “Compound NOT metabolized” each time. Besides, the “Bacterial Biotransformation” value in data set [19] and in [20] was “Compound NOT metabolized” in each case.
For the molecule `COc1ccc(CCN(C)CCCC(C#N)(c2ccc(OC)c(OC)c2)C(C)C)cc1OC` (stereo not given), the “Bacterial Biotransformation” value is reported as “Compound metabolized” in data set [1]; “Compound metabolized” in [2]; “Compound metabolized” in data set [3]; “Compound NOT metabolized” in data set [4]; “Compound metabolized” in data set [5]; “Compound NOT metabolized” in [6]. Further, the “Bacterial Biotransformation” value in data set [7] is listed as “Compound NOT metabolized”; in data set [8] it was “Compound metabolized”; in data set [9], “Compound NOT metabolized”; in data set [10], “Compound metabolized”; in data set [11], “Compound metabolized”; in [12] it was “Compound NOT metabolized”. Besides, the “Bacterial Biotransformation” value in data set [13] is given as “Compound metabolized”; in data set [14] it was “Compound NOT metabolized”; in data set [15], “Compound metabolized”; in [16], “Compound NOT metabolized”; in [17] it was “Compound metabolized”; in data set [18], “Compound metabolized”. For the same molecule, the “Bacterial Biotransformation” value in data set [19] and in data set [20] was “Compound NOT metabolized” in each case.
Regarding `CN1CC(=O)N2[C@H](c3ccc4c(c3)OCO4)c3[nH]c4ccccc4c3C[C@@H]2C1=O`, the “Bacterial Biotransformation” value in [1] is on record as “Compound metabolized”; in data set [2], “Compound metabolized”; in [3], “Compound metabolized”; in data set [4] it was “Compound NOT metabolized”; in [5], “Compound NOT metabolized”; in data set [6], “Compound metabolized”. The “Bacterial Biotransformation” value in data set [7] is recorded as “Compound metabolized”; in data set [8] it was “Compound metabolized”; in [9] it was “Compound NOT metabolized”; in [10] it was “Compound metabolized”; in [11] it was “Compound metabolized”; in data set [12] it was “Compound NOT metabolized”. In addition, the “Bacterial Biotransformation” value is “Compound metabolized” in [13]; “Compound NOT metabolized” in data set [14]; “Compound metabolized” in data set [15]; “Compound metabolized” in data set [16]; “Compound metabolized” in data set [17]; “Compound NOT metabolized” in data set [18]. The “Bacterial Biotransformation” value in data set [19] and in data set [20] was “Compound NOT metabolized” in each case.
